{"source": "paper PMC10761660", "about": "“Preclinical evaluation of an ^18F-labeled N^ε-acryloyllysine piperazide for covalent targeting of transglutaminase 2” (EJNMMI Radiopharmacy and Chemistry, 2024)", "assay": "Liver microsome assay", "format": "in vitro ADME, murine", "conditions": "for CLint scaled: read-out: predicted intrinsic clearance (pred. CLint); for half-life: t1/2 approach (at 3-4 µM), 1 mg/mL MLM, 2 mM NADPH", "protocol": "Microsome experiments with [^18F]7b in the presence of NADPH were performed according to the procedure recently described by us with slight modifications (Lemm et al. [2022]). […] [^18F]7b dissolved in 0.5% ethanol/PBS (100 µL; 0.2% ethanol final, e.g. 108 MBq/mL or 4.1 µM final) was mixed with PBS (112.5 µL) and murine liver microsomes (MLM, 12.5 µL of 20 mg/mL stock; 1 mg/mL final; Gibco™ Cat. No. MSMCPL, Lot. No. MS053-A) in a 1.5 mL Eppendorf tube and the mixture was warmed for 5 min at 37 °C. Subsequently, NADPH (25 µL of freshly prepared 20 mM solution in PBS, 2 mM final) was added and the mixture was incubated at 37 °C. As a control incubation, the NADPH solution was replaced by PBS. At distinct time points (5, 10, 15, 30, and 60 min), an aliquot (40 µL) was withdrawn and added to ice-cold CH3CN (160 µL). The mixture was vortexed for 30 s, stored on ice for 4 min and centrifuged (5 min at 16,100 × g). The resulting supernatant was used for radio-HPLC and radio-TLC analyses. For radio-HPLC, the Shimadzu Nexera X2 UHPLC system described above including the conditions for analysis was used. Radio-TLC was carried out on reversed-phase TLC plates (ALUGRAM RP-18W/UV254 from Macherey–Nagel, Düren, Germany) with a mobile phase of 40% CH3CN in water containing 0.1% trifluoroacetic acid. Visualization of radioactive spots and subsequent analysis was conducted as described above.\nTestosterone (40 µM final) was used as positive control for the activity of the MLM and was separately treated and analyzed after incubation times of 5, 10, 15, 30, and 60 min as described above (0% ethanol final; HPLC gradient profile: 45% eluent B for 10 min followed by washing of the column with 45% to 95% eluent B in 1 min, 95% eluent B for 5 min, 95% to 45% eluent B in 1 min, 45% eluent B for 8 min; total time of 25 min).\nFor that, solutions of [^18F]7b in 0.5% ethanol/PBS (10 µL; 0.1% ethanol final, 17 MBq/mL or 1.14 µM final) were mixed with the respective tenfold concentrated solutions of 7b dissolved in 10% DMSO/PBS (5 µL, 1% DMSO final and 5/10/20/40/80 µM of 7b final), PBS (27.5 µL) and murine liver microsomes (2.5 µL of 20 mg/mL stock) in a 1.5 mL Eppendorf tube and the mixture was warmed for 5 min at 37 °C. Subsequently, NADPH (5 µL of freshly prepared 20 mM solution in PBS, 2 mM final) was added and the mixture was incubated at 37 °C. At distinct time points (5, 10, 15, 20, and 30 min), an aliquot (5 µL) was withdrawn and added to ice-cold CH3CN (40 µL). The subsequent steps were performed as described above including analysis by radio-TLC.\nFor the t1/2 approach at n.c.a. level, the obtained fractions of intact [^18F]7b (by radio-HPLC or radio-TLC analysis) were plotted against the time. Nonlinear regression was performed by one-phase decay (equation 1) as implemented in GraphPad Prism (GraphPad Prism 9.5.1.733), which provided the t1/2 values. The fraction at X = 0 min, Y0, was constrained to 1.0.1 Y0=Y0-Plateau×e^-k×X+Plateau\nSubsequently, the intrinsic clearance, CLint (mL*min^−1*kg^−1), was calculated using equation 2 (Obach et al. [1997]; Schneider et al. [2019])2 CLint=ln2/t1/2min×fuinc×1/MLM(mg/mL)×microsomalprotein/liverweightmg/g×liverweight/bodyweightg/kg with the scaling factors of 60.1 mg/g (microsomal protein/liver weight for rats as no value for mice could be found) (Carlile et al. [1997]) and 87.5 g/kg (liver weight/body weight for mice) (Davies and Morris [1993]). The concentration of the MLMs was 1 mg/mL.\nFor the Vmax/Km approach, the obtained fractions of intact [^18F]7b (by radio-TLC analysis) were plotted against the time (fraction plot). The concentration plot was obtained by transformation of the fractions into concentrations of 7b by taking the experimentally determined molar activity of [^18F]7b into account (i.e. final concentration of 1.14, 6.16, 11.14, 21.14, 41.14, and 81.14 µM for 7b in the performed experiments). Both plots were analyzed by nonlinear regression according to one-phase decay (equation 1). […]", "note": "Like-named read-outs stand apart in the source and are kept apart here.", "data": [{"smiles": "C=CC(=O)NCCCCC(NC(=O)Cc1ccccc1)C(=O)N1CCN(c2cccc([18F])n2)CC1", "note": "(centres unmarked) [[^18F]7b]", "values": [{"measurement": "fraction of intact [^18F]7b", "setting": "MLM, after 30 min in the absence of NADPH, radio-TLC", "result": 0.984}, {"measurement": "Vmax", "setting": "Michaelis–Menten analysis, degradation by MLM (1 mg/mL)", "result": 0.37, "unit": "µM/min"}, {"measurement": "Vmax", "setting": "Vmax/Km approach, substrate depletion, radio-TLC", "result": 0.37, "unit": "µM*mL*min^-1*mg^-1"}, {"measurement": "CLint scaled", "setting": "mouse, liver microsomes, Vmax/Km approach, mice", "result": 1610, "unit": "mL/min/kg"}, {"measurement": "half-life", "setting": "mouse, liver microsomes, radio-HPLC", "result": 5.7, "unit": "min"}, {"measurement": "half-life", "setting": "mouse, liver microsomes, radio-TLC", "result": 7.2, "unit": "min"}, {"measurement": "CLint scaled", "setting": "mouse, liver microsomes, t1/2 approach", "result": 772, "unit": "mL/min/kg"}, {"measurement": "Km", "setting": "mouse, liver microsomes, Vmax/Km approach, degradation by MLM, radio-TLC", "result": 1500, "unit": "nM"}]}]}
